The record followed here is US20240109918A1, “HETEROCYCLIC COMPOUNDS AND USES THEREOF” (Kumquat Biosciences Inc., priority 2022, published 2024).

One test addresses T1, KRASwt (Homo sapiens, UniProt P01116).
T1 construct: made in house; host or cells: E. coli BL21 (DE3)
Put plainly: Bio-Biochem-PPI-HTRF Ras-SOS1 interaction assay (KRAS wt). It is filed as biochemical. The following applies: 5 nM. The procedure, abridged: (§1)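 Inhibition of His-hSOS1 binding to GST-tagged wild-type or G12D K-Ras is read as HTRF ratio (665/620 nm) following incubation of about 10 minutes or longer, and IC50 values are fitted from duplicate six-point titrations.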
For orientation: In TR-FRET formats the signal depends on donor and acceptor labels being close together.

A further test has as its target T2, KRASG12D (Homo sapiens, UniProt P01116, G12D).
T2 construct: made in house; host or cells: E. coli BL21 (DE3)
Put plainly: Bio-Biochem-PPI-HTRF Ras-SOS1 interaction assay (KRAS G12D). In kind it is biochemical. The conditions noted are these: 5 nM. In short, it runs like this:
as §1

pIC50: −log10 of the molar value.

T1 sequence (P01116 1-188 isoform P01116-2): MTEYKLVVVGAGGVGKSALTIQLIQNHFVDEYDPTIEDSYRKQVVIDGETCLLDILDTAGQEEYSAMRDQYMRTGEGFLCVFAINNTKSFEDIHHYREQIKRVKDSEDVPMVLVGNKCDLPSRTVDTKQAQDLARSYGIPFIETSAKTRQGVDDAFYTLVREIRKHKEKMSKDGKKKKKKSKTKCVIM
T2 sequence (P01116 1-188 isoform P01116-2 G12D): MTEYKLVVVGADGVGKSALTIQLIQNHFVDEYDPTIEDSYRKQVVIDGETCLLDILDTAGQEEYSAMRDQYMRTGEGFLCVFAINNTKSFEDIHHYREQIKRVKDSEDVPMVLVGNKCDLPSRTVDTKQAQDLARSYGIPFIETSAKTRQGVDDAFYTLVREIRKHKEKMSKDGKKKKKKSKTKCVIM

Broadly, the pIC50 is the negative decadic logarithm of the IC50, by convention in mol/L. A higher pIC50 goes with a small IC50. Turning to `N#Cc1c(N)sc2c(F)ccc(-c3c(Cl)cc4c(N5CCC6(CN(C#N)C6)C5)nc(OC[C@@]56CCCN5C[C@H](F)C6)nc4c3F)c12` [compound 182, 6-(7-(2-amino-3-cyano-7-fluorobenzo[b]thiophen-4-yl)-6-chloro-8-fluoro-2-(((2R,7aS)-2-fluorotetrahydro-1H-pyrrolizin-7a(5H)-yl)methoxy)quinazolin-4-yl)-2,6-diazaspiro[3.4] octane-2-carbonitrile], the pIC50 against KRASwt and at KRASG12D was over 5.30 in each case.

Take `CN(C)C/C=C/C(=O)N1CC2(CCN(c3nc(OC[C@@]45CCCN4C[C@H](F)C5)nc4c(F)c(-c5ccc(F)c6sc(N)c(C#N)c56)c(Cl)cc34)C2)C1` [compound 183, 2-amino-4-(6-chloro-4-(2-((E)-4-(dimethylamino)but-2-enoyl)-2,6-diazaspiro[3.4]octan-6-yl)-8-fluoro-2-(((2R,7aS)-2-fluorotetrahydro-1H-pyrrolizin-7a(5H)-yl)methoxy)quinazolin-7-yl)-7-fluorobenzo[b]thiophene-3-carbonitrile]: the pIC50 against KRASwt and on KRASG12D was over 5.30 in each case.

Regarding `N#Cc1c(N)sc2c(F)ccc(-c3c(Cl)cc4c(N5CCCC6(CN(C(=O)C(F)Cl)C6)C5)nc(OC[C@@]56CCCN5C[C@H](F)C6)nc4c3F)c12` (stereo partly drawn) [compound 184, 2-amino-4-(6-chloro-4-(2-(2-chloro-2-fluoroacetyl)-2,6-diazaspiro[3.5]nonan-6-yl)-8-fluoro-2-(((2R,7aS)-2-fluorotetrahydro-1H-pyrrolizin-7a(5H)-yl)methoxy)quinazolin-7-yl)-7-fluorobenzo[b]thiophene-3-carbonitrile], the pIC50 on KRASwt and on KRASG12D was over 5.30 each time.

Consider `CN(C)C/C=C/C(=O)N1CC2(C1)CN(c1nc(OC[C@@]34CCCN3C[C@H](F)C4)nc3c(F)c(-c4ccc(F)c5sc(N)c(C#N)c45)c(Cl)cc13)CCO2` [compound 185, 2-amino-4-(6-chloro-4-(2-((E)-4-(dimethylamino)but-2-enoyl)-5-oxa-2,8-diazaspiro[3.5]nonan-8-yl)-8-fluoro-2-(((2R,7aS)-2-fluorotetrahydro-1H-pyrrolizin-7a(5H)-yl)methoxy)quinazolin-7-yl)-7-fluorobenzo[b]thiophene-3-carbonitrile], for which the pIC50 against KRASwt and at KRASG12D was over 5.30 throughout.

Take `N#CN1CC2(C1)CN(c1nc(OC[C@@]34CCCN3C[C@H](F)C4)nc3c(F)c(-c4ccc(F)c5sc(N)nc45)c(Cl)cc13)CCO2` [compound 187, 8-(7-(2-amino-7-fluorobenzo[d]thiazol-4-yl)-6-chloro-8-fluoro-2-(((2R,7aS)-2-fluorotetrahydro-1H-pyrrolizin-7a(5H)-yl)methoxy)quinazolin-4-yl)-5-oxa-2,8-diazaspiro[3.5]nonane-2-carbonitrile]: the pIC50 against KRASwt and at KRASG12D was over 5.30 each time.

On to `CN(C)C/C=C/C(=O)N1CC2(CCCCN(c3nc(OC[C@@]45CCCN4C[C@H](F)C5)nc4c(F)c(-c5ccc(F)c6sc(N)c(C#N)c56)c(Cl)cc34)C2)C1` [compound 188, 2-amino-4-(6-chloro-4-(2-((E)-4-(dimethylamino)but-2-enoyl)-2,6-diazaspiro[3.6]decan-6-yl)-8-fluoro-2-(((2R,7aS)-2-fluorotetrahydro-1H-pyrrolizin-7a(5H)-yl)methoxy)quinazolin-7-yl)-7-fluorobenzo[b]thiophene-3-carbonitrile], for which the pIC50 against KRASwt and on KRASG12D was over 5.30 in each case.

As for `CN(C)C/C=C/C(=O)N1CC2(CCCN(c3nc(OC[C@@]45CCCN4C[C@H](F)C5)nc4c(F)c(-c5ccc(F)c6sc(N)c(C#N)c56)c(Cl)cc34)C2)C1` [compound 189, 2-amino-4-(6-chloro-4-(2-((E)-4-(dimethylamino)but-2-enoyl)-2,6-diazaspiro[3.5]nonan-6-yl)-8-fluoro-2-(((2R,7aS)-2-fluorotetrahydro-1H-pyrrolizin-7a(5H)-yl)methoxy)quinazolin-7-yl)-7-fluorobenzo[b]thiophene-3-carbonitrile], the pIC50 against KRASwt and at KRASG12D was over 5.30 in each case.
